# Experimental data reported in US20060052435A1, “Selective dopamin d3 receptor agonists for the treatment of sexual dysfunction” (priority 2001, published 2006).
# Assays:
# [1] = biological target: human dopamine D2 long receptor (Homo sapiens, UniProt P14416)
# [2] = system: telemetry rats; assay: rat telemetry model of erection (intracavernosal pressure); assay type: in vivo; settings: for proerectile effect (words): male models of erection / telemetry rats, agonist alone; for agonist-induced erectile activity with concomitant L-741,626 and SB-277,011: L-741,626 2 mg/kg s.c. and SB-277,011 3 mg/kg s.c.
# Description: Erectile responses were recorded by measuring intracavernosal pressure and/or clitoral/vaginal blood flow using surgically implanted telemetric device. The specific details of the surgical procedures, data acquisition and analysis can be found in detail in Bernabe J, Rampin O, Sachs B D, Giuliano F. Intracavernous pressure during erection in rats: an integrative approach based on telemetric recording. Am. J. Physiol.
# [3] = system: anaesthetised dog; assay: haemodynamics in the anaesthetised dog; assay type: in vivo
# Text: Male beagles were anaesthetised with a mixture of chloralose and urethane, following pre-medication with piritramide. They were instrumented to measure arterial blood pressure, cardiac output, E.C.G., pudendal artery blood flow (PAF) and intra-cavernosal pressure (ICP). Other parameters such as heart rate and vascular resistance were derived from the primary signals. Following a period of equilibration, a series of control readings were taken and the effects of pelvic nerve stimulation at 4 and 8 Hz, on ICP and PAF were measured. Compounds were administered subcutaneously in the dorsal neck region via an implanted catheter, in the dose range of 0.3-3000 μg(base)/kg. Following each dose, parameters were measured at fixed intervals for 30 min.
# Results were analysed as percent change from the final control values for each dog and mean values for three dogs were used.
# [4] = system: ferrets; assay: 7-OH-DPAT-induced emesis in the ferret; assay type: in vivo; settings: for Antagonist potency ED100 versus 7-OH-DPAT-induced emesis: s.c., minimum dose completely inhibiting emesis in all animals, n = 3
# [5] = system: New Zealand rabbits; assay: male and female anaesthetised rabbit, pelvic nerve stimulation; assay type: in vivo
# Description: 1.1.1 Male and Female Anaesthetised Rabbit Methodology
# Male and female New Zealand rabbits (˜2.5 kg) were pre-medicated with a combination of Medetomidine (Domitor®) 0.5 ml/kg i.m., and Ketamine (Vetalar®) 0.25 ml/kg i.m. whilst maintaining oxygen intake via a face mask. The rabbits were tracheotomised using a Portex™ uncuffed endotracheal tube 3 ID., connected to ventilator and maintained at a ventilation rate of 30-40 breaths per minute, with an approximate tidal volume of 18-20 ml, and a maximum airway pressure of 10 cm H2O. Anaesthesia was then switched to Isoflurane and ventilation continued with O2 at 2 l/min. The right marginal ear vein was cannulated using a 23 G or 24 G catheter, and Lactated Ringer solution perfused at 0.5 ml/min. The rabbit was maintained at 3% Isoflurane during invasive surgery, dropping to 2% for maintenance anaesthesia. The left jugular vein was exposed, isolated and then cannulated with a PVC catheter (17 G) for the infusion of drugs and compounds.
# The left groin area of the rabbit was shaved and a vertical incision was made approximately 5 cm in length along the thigh. The femoral vein and artery were exposed, isolated and then cannulated with a PVC catheter (17 G) for the infusion of drugs and compounds. Cannulation was repeated for the femoral artery, inserting the catheter to a depth of 10 cm to ensure that the catheter reached the abdominal aorta. This arterial catheter was linked to a Gould system to record blood pressure. Samples for blood gas analysis were also taken via the arterial catheter. Systolic and diastolic pressures were measured, and the mean arterial pressure calculated using the formula (diastolic×2+systolic)÷3. Heart rate was measured via the pulse oxymeter and Po-ne-mah data acquisition software system (Ponemah Physiology Platform, Gould Instrument Systems, Inc.).
# A ventral midline incision was made into the abdominal cavity. The incision was about 5 cm in length just above the pubis. The fat and muscle was bluntly dissected away to reveal the hypogastric nerve which runs down the body cavity. It was essential to keep close to the side curve of the pubis wall in order to avoid damaging the femoral vein and artery which lie above the pubis. The sciatic and pelvic nerves lie deeper and were located after further dissection on the dorsal side of the rabbit. Once the sciatic nerve is identified, the pelvic nerve was easily located. The term pelvic nerve is loosely applied; anatomy books on the subject fail to identify the nerves in sufficient detail. However, stimulation of the nerve causes an increase in vaginal and clitoral blood flow in females and in intracavernosal pressure and cavernosal blood flow in males, and innervation of the pelvic region. […]
# [6] = biological target: D3 receptors over D2 receptors (Homo sapiens, UniProt P35462); settings: GTPγS assay; cited from earlier work
# Sequence of D3 receptors over D2 receptors (P35462 whole entry, species assumed): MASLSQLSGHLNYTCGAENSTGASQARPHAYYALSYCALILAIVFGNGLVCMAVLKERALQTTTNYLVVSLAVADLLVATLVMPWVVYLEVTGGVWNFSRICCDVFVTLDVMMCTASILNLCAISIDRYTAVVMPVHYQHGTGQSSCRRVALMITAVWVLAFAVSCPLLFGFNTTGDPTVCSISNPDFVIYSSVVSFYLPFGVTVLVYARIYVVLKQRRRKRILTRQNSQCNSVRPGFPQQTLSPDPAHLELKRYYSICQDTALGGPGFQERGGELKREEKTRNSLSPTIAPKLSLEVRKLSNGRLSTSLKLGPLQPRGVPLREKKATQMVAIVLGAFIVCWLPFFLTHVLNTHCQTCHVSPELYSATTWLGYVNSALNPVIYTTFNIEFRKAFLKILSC
# [7] = biological target: human recombinant D2short (hD2s) receptors (Homo sapiens, UniProt P14416); assay: inhibition of binding of [3H]-spiperone; settings: n = 3-11
# Sequence of human recombinant D2short (hD2s) receptors (P14416 1-414 isoform P14416-2): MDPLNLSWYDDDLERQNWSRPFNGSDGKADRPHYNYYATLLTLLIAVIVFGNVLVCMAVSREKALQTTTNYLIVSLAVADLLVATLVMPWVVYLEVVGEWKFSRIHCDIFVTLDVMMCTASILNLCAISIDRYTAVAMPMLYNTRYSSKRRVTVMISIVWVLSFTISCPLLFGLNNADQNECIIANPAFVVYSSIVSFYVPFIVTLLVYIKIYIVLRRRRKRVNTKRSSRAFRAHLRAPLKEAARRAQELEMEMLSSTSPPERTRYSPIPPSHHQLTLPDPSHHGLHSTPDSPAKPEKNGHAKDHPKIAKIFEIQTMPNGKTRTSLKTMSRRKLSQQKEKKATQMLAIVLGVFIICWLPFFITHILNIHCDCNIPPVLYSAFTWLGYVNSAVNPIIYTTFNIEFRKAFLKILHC
# [8] = unbound plasma and whole brain concentrations in anaesthetised ferrets; settings: s.c. dosing at the ED100 dose, n = 1
# [9] = biological target: human recombinant D3 (hD3) receptors (Homo sapiens, UniProt P35462, G9S); assay: inhibition of binding of [3H]-R(+)-7-OH-DPAT; settings: n = 3-11
# Sequence of human recombinant D3 (hD3) receptors (P35462 whole entry G9S): as the sequence (P35462 whole entry, species assumed) above, with G9S counted along it
# [10] = biological target: D1 receptor (Homo sapiens, UniProt P21728); settings: quoted abstract; cited from earlier work
# Sequence of D1 receptor (P21728 whole entry): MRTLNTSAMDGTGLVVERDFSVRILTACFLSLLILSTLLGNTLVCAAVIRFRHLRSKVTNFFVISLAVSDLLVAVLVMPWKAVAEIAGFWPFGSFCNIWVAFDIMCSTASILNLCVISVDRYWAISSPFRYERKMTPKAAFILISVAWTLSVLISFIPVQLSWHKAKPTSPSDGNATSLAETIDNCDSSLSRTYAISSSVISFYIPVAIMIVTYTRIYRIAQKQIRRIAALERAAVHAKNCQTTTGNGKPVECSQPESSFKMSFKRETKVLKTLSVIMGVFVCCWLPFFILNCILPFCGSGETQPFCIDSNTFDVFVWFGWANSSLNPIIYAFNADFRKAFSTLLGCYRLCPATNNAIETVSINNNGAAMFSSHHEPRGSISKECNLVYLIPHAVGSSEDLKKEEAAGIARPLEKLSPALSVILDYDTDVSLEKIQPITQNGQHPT
# [11] = biological target: T1, D2 (Homo sapiens, UniProt P14416); settings: quoted abstract; cited from earlier work
# T1 sequence (P14416 whole entry): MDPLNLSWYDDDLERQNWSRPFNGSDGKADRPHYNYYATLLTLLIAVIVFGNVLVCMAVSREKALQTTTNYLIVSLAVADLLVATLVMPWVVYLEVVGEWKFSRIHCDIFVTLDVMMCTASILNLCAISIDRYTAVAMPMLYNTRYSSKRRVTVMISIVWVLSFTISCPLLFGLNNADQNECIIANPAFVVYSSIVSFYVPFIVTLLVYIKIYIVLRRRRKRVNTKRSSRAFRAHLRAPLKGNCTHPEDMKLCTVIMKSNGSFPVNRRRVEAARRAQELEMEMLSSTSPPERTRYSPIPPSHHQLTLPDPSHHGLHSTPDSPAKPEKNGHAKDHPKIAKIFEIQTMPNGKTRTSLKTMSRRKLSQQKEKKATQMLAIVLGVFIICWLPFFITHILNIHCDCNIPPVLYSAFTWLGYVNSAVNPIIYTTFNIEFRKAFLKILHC
# [12] = system: ovariectomized, partially hormone-repleted female rats; settings: 50 ug/kg P.O., 15-30 min after dosing; from 22+/−8%; cited from earlier work
# [13] = system: male rhesus monkeys; settings: 20 and 50 ug/kg P.O., evaluated for 4 hr; cited from earlier work
# [14] = biological target: dopamine D3 receptor (Homo sapiens, UniProt P35462); assay: cell-based
# Sequence of dopamine D3 receptor (P35462 whole entry, species assumed): as the sequence (P35462 whole entry, species assumed) above
# [15] = biological target: T1, D2; settings: WO 93/23035; cited from earlier work
# [16] = biological target: D3 (Homo sapiens, UniProt P35462); settings: WO 93/23035; cited from earlier work
# Sequence of D3 (P35462 whole entry, species assumed): as above
# [17] = system: anaesthetised dog; assay: emesis in the chloralose anaesthetised dog; settings: male, beagle, dog, in vivo, sc, 30 min
# Description: Male beagles, 11-17 kg were used. Following an overnight fast, animals were anaesthetised with chloralose (80 mg kg^−1 i.v.), having first been injected with an anaesthetic dose of the short acting barbiturate, thiopentone (15 mg kg^−1 i.v.). Following tracheal intubation, which ensured a patent airway even during the expulsion phase of the emetic response, the left femoral vein and artery were cannulated for further administration of anaesthetic and for recording haemodynamic parameters, respectively. […] During the stabilisation period, respiratory rate was monitored to ensure that central respiratory centres were not deeply depressed, since the CNS efferent component of the emetic reflex is essentially conveyed via respiratory motor neurones. […] Animals were observed closely for 30 min post-dose and motor (e.g. swallowing, eye blinking, limb movements, changes in respiratory rate and depth, retching and vomiting) and haemodynamic changes noted and recorded. […] At the end of an experiment animals were sacrificed with an overdose of pentobarbitone.
# Observations made on individual animals were used to determine the percentage of animals that retched when injected with a particular dose level of test compound. Percentage of animals retching was then used to construct a dose response curve and an ED50 value determined from the appropriate curve.
# Sequence of human dopamine D2 long receptor (P14416 whole entry): as the sequence (P14416 whole entry) above
smiles,measurement,setting,value
CCCN1CCOC(c2cc(O)cc(O)c2)C1 (racemic) [Example 15a + 15b (racemate)],EC50,[1],> 10000 nM
CCCN1CCOC(c2ccc(F)c(O)c2)C1 (racemic) [Example 23a + 23b (racemate)],EC50,[1],> 5000 nM
"CCCN1CCOC(c2cc(O)cc(O)c2)C1 (single isomer, unassigned) [Example 15a, R-5-(4-Propylmorpholin-2-yl)benzene-1,3-diol]",EC50,[1],1750 nM
"CCCN1CCOC(c2ccc(F)c(O)c2)C1 (single isomer, unassigned) [Example 23a, R-(+)-2-Fluoro-5-(4-propylmorpholin-2-yl)phenol]",EC50,[1],> 5000 nM
CN1CCc2cccc3c2[C@H]1Cc1ccc(O)c(O)c1-3 [Apomorphine],proerectile effect (words),[2],induce/enhance proerectile effects
same,Geometric mean ED30 (fall in TPR),"[3]; dog, in vivo",11.7 μg/kg s.c.
same,cardiac output at the highest dose levels,"[3]; dog, in vivo",approximately doubled
same,effect on cardiac output and heart rate,[3]; s.c.,increases in cardiac output and heart rate
same,effect on total vascular resistance (TVR; TPR),"[3]; s.c., doses up to 3000 μg/kg",reduction in total vascular resistance
CCCN(CCC)C1CCc2ccc(O)cc2C1 (stereo not shown) [Example 7-OH-DPAT],"agonist-induced erectile activity with concomitant L-741,626 and SB-277,011",[2],abolishes all 7-OH-DPAT-induced erectile activity
same,proerectile effect (words),[2],induce/enhance proerectile effects
same,"emetic response, total retches and vomits (mean±s.e.m.)","[4]; 0.1 mg/kg s.c., observed for 6 h, control animals",78.0±9.0
"CCCN1CCOC(c2ccc(O)c(C(N)=O)c2)C1 (stereo not shown) [Example 35, 2-Hydroxy-5-(4-propylmorpholin-2-yl)benzamide]",EC50,[1],~10500 nM
"CCCN1CCOC(c2ccc(O)c(N)c2)C1 (stereo not shown) [Example 37, 2-Amino-4-(4-propylmorpholin-2-yl)phenol]",EC50,[1],> 100000 nM
CCCN1CCO[C@H]2c3cc(C(N)=O)ccc3CC[C@@H]21 [Example S32504],penile intracavernosal pressure and cavernosal blood flow in male rabbits,[5],beneficially enhances
same,vaginal and clitoral blood flow in female rabbits,[5],beneficially enhances
same,selectivity for D3 receptors over D2 receptors,[6],251 fold
CCCN(CCC)[C@@H]1CCc2cc(CS(=O)(=O)c3ccc(OC)cc3)ccc2C1 [GR218231],Affinity estimates (pKi ± s.e.m.) hD2s,[7],6.8 ± 0.44
same,animals in which emesis was blocked,[4]; highest dose of 10 mg/kg,⅔
same,Antagonist potency ED100 versus 7-OH-DPAT-induced emesis,[4],>10 mg/kg
same,Brain conc^n,[8],1670 ng/g
same,Plu/Ki hD2s (ratio of unbound plasma concentration to binding affinity),[8],1.3
same,Plu/Ki hD3 (ratio of unbound plasma concentration to binding affinity),[8],95
"OC1(c2ccc(Cl)cc2)CCN(Cc2c[nH]c3ccccc23)CC1 [L-741,626]",Affinity estimates (pKi ± s.e.m.) hD3,[9],6.6 ± 0.24
same,Antagonist potency ED100 versus 7-OH-DPAT-induced emesis,[4],3 mg/kg
same,Brain conc^n,[8],250 ng/g
CN[C@@H]1Cc2cccc3[nH]c(=S)n(c23)C1 [PNU-142774E],Ki,[10],> 7000 nM
same,Ki,[11],7 nM
same,lordosis/mounts ratio (L/M),[12],65+/−10%
same,"non-contact sexual behavior (erections, masturbation)",[13],increase in sexual behavior
"CCCNC1CCc2nc(N)sc2C1.Cl.Cl (stereo not shown) [Pramipexole, 2-amino-4,5,6,7-tetrahydro-6-propylamino-benzthiazole-dihydrochloride]","agonist-induced erectile activity with concomitant L-741,626 and SB-277,011",[2],abolishes all pramipexole-induced erectile activity
same,No of erectogenic events/15 min,[2]; Pramipexole 0.1 μg/kg s.c.,2.8 ± 0.2 n = 5 erectogenic events/15 min
same,proerectile effect (words),[2],induces a proerectile effect
same,proerectile effect (words),[2]; listed as pramipexole,induce/enhance proerectile effects
same,EC50,[14],0.62 nM
CCCN1CCC[C@@H]2Cc3nc(N)ncc3C[C@H]21 [Quinelorane],EC50,[1],6.1 nM
CCCN(CCC)CCc1cccc2c1CC(=O)N2 [Ropinirole],binding D2,[15],1380 nM
same,binding D3,[16],69 nM
same,EC50,[1],16.1 nM
c1ccc(N2CCN(C[C@H]3CC[C@H](Nc4ncccn4)CC3)CC2)cc1 [trans-[4-[(4-Phenylpiperazin-1-yl)methyl]cyclohexyl]-pyrimidin-2-ylamine],"erectogenic effect in the presence of selective D2 receptor antagonist L-741,626","[2]; L-741,626 2 mg/kg s.c.",abolished
same,proerectile effect (words),[2],produced erections
same,dose at which emesis was observed,[17],0.1 mg/kg
same,Geometric mean ED30 (fall in TPR),"[3]; dog, in vivo",44.6 μg/kg s.c.
same,cardiac output at the highest dose levels,"[3]; dog, in vivo",approximately doubled
same,effect on cardiac output and heart rate,"[3]; dog, in vivo, sc",increases in cardiac output and heart rate
same,EC50,[1],3.8 nM
